Patent US20220087970A1, “PREVENTION OF ANESTHETIC-INDUCED NEUROCOGNITIVE DYSFUNCTION” (The Johns Hopkins University, priority 2019, published 2022)

Columns and labels:
[1] = system: caspase-3; assay: Western blot for cleaved caspase-3 (apoptosis) after PND7 exposure; type: in vivo; details: PND7 mice, 4 h treatment (1.5% ISO in 100% O2 or peptide 8 mg/kg ip), 2 h following cessation of exposure
Description: 1.3.2 Anesthesia, Peptide, and Molsidomine Injections. PND7 control and experimental mice were placed in a clear plastic cone and body temperature maintained by a heating blanket set to 35° C. Vital signs and physiological monitoring were assessed using PhysioSuite® (Kent Scientific Corporation, Torrington, Conn., USA) and blood gasses were collected arterially. […] Note that lower concentrations of 02 can be used, e.g., between 20% to 100% 02, including 20%, 25%, 30%, 35%, 40%, 45%, 50%, 55%, 60%, 65%, 70%, 75%, 80%, 85%, 90%, 95%, 96%, 97%, 98%, 99%, and 100% 02. Naïve animals were left with the dams. Anesthesia was initiated with 2.4% ISO in 100% oxygen for 2 min and tapered down to 1.5% within 15 min. Exposure to 1.5% ISO was continued for 3 hours and 45 min (total 4 hours ISO). Control ‘CON’ animals were exposed to 100% oxygen only. At the end of the exposure animals were maintained in oxygen on the heating blanket for 10 min then returned to dams. […] Tao and Johns, 2008. A single injection of peptide was given ip. Separate peptide cohorts were injected in parallel with mice undergoing exposure to anesthesia or O2 control. […]
1.3.3 Western Blotting. […] Proteins were detected by enhanced chemiluminescence (Amersham, Piscataway, N.J.). […]

[2] = system: primary neuron cultures; assay: Primary neuron cultures, long thin spines and filopodia at DIV7; type: cell-based; details: 4 hrs: isoflurane 1.5%, PDZ2WT peptide 1 μM or sevoflurane 2.1%
Description: Primary neuron cultures were exposed to control gas (25% O2, 5% CO2, bal N2), isoflurane (1.5% ISO in 25% O2, 5% CO2, bal N2), DETA NONOate NO donor 150 μM and sGC inhibitor ODQ 100 μM for 4 hrs. […] MAP2 dendrite marker, green. Drebrin A/E immature spine/filopodia marker, red. Scale bar is 5 μm. FIG. 20B, Density of long thin spines and filopodia at DIV7 among exposed groups analyzed using Imaris 93.1;
MAP2, green. Drebrin, red. Scale bar is 5 μm. FIG. 21B, show the density of long thin spines and filopodia among exposed groups;
Neuron cultures were exposed to control gas (25% O2, 5% CO2, balance N2) or sevoflurane (2.1% ISO in 25% O2, 5% CO2, balanced N2) for 4 hrs. […] Scale bar is 5 μm. FIG. 22B, Density of long thin spines and filopodia among exposed groups; and […]

[3] = system: GFP+ neurons; details: early exposure to isoflurane, PND30; Kang et al., 2017; cited from earlier work

FC(F)OC(Cl)C(F)(F)F (racemic) [ISO, (RS)-2-chloro-2-(difluoromethoxy)-1,1,1-trifluoroethane]
cleaved caspase-3 (Western blot) [1]: did not yield any detectable cleaved caspase | long thin spines and filopodia at DIV7 after exposure [2]: loss of long thin and filopodia spines | total dendritic length and Sholl analysis of dendritic complexity [3]: marked overgrowth of dendritic arbors
